According to US7829589B2, “Sulfonamide compounds and uses thereof” (Elixir Pharmaceuticals, Inc., priority 2005, dated 2010):

The compounds below were run against GHS-R (Homo sapiens, UniProt Q92847) (assay: GHS-R antagonist activity (Ki) in a cell based assay).
In short: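 Transfected COS-7 cells were labelled 24 h with [^3H]-myo-inositol and preincubated 30 min at 37 °C in HEPES buffer pH 7.4 with 10 mM LiCl, optionally with 1 U/ml adenosine deaminase. Compound was applied for 45 min at 37 °C. [^3H]-inositol phosphates were extracted with perchloric acid and isolated by anion-exchange resin.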

Sequence of GHS-R (Q92847 whole entry, species assumed): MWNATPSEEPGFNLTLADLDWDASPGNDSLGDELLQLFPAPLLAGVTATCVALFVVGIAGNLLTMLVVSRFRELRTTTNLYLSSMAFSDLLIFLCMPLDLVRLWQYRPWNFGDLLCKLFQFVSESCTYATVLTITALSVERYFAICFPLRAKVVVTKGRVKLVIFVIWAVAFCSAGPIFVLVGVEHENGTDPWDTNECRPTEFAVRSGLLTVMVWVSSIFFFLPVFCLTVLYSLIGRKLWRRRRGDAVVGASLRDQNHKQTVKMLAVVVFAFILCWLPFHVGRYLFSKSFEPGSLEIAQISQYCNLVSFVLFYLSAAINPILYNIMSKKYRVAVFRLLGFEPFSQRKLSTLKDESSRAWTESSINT

Compound	Ki
CCN(CC)CCCS(=O)(=O)N[C@H](CCc1ccccc1)c1nc(-c2c(OC)cccc2OC)no1 [Compound 37, 3-Diethylamino-propane-1-sulfonic acid {(R)-1-[3-(2,6-dimethoxy-phenyl)-[1,2,4]oxadiazol-5-yl]-3-phenyl-propyl}-amide]	500 to 1000 nM
CCN(CC)CCS(=O)(=O)N[C@H](CCc1ccccc1)c1nc(-c2ccccc2)n[nH]1 [Compound 28, 2-Diethylamino-ethanesulfonic acid [(R)-3-phenyl-1-(5-phenyl-2H-[1,2,4]triazol-3-yl)-propyl]-amide]	< 100 nM
CCN(CC)CCCS(=O)(=O)N[C@H](CCc1ccccc1)c1nc(-c2ccc(OC)cc2)no1 [Compound 69, 3-Diethylamino-propane-1-sulfonic acid {(R)-1-[3-(4-methoxy-phenyl)-[1,2,4]oxadiazol-5-yl]-3-phenyl-propyl}-amide]	< 100 nM
CCN(CC)CCCS(=O)(=O)N[C@H](CCc1ccccc1)c1nc(-c2ccc3c(c2)OCO3)n[nH]1 [Compound 11, 3-Diethylamino-propane-1-sulfonic acid [(R)-1-(5-benzo[1,3]dioxol-5-yl-2H-[1,2,4]triazol-3-yl)-3-phenyl-propyl]-amide]	< 100 nM
CCN(CC)CCS(=O)(=O)N[C@H](COCc1ccccc1)c1nc(-c2ccccc2OC)no1 [Compound 49, 2-Diethylamino-ethanesulfonic acid {(R)-2-benzyloxy-1-[3-(2-methoxy-phenyl)-[1,2,4]oxadiazol-5-yl]-ethyl}-amide]	≥ 1000 nM
CCN(CC)CCCS(=O)(=O)N[C@H](CCc1ccccc1)c1nc(-c2cccc(Cl)c2Cl)n[nH]1 [Compound 3, 3-Diethylamino-propane-1-sulfonic acid {(R)-1-[5-(2,3-dichloro-phenyl)-2H-[1,2,4]triazol-3-yl]-3-phenyl-propyl}-amide]	< 100 nM
CCN(CC)CCS(=O)(=O)N[C@H](CCc1ccccc1)c1nc(-c2c(OC)cccc2OC)no1 [Compound 46, 2-Diethylamino-ethanesulfonic acid {(R)-1-[3-(2,6-dimethoxy-phenyl)-[1,2,4]oxadiazol-5-yl]-3-phenyl-propyl}-amide]	100 to 500 nM
CCN(CC)CCCS(=O)(=O)N[C@H](COCc1ccccc1)c1nc(-c2ncccc2C)no1 [Compound 34, 3-Diethylamino-propane-1-sulfonic acid {(R)-2-benzyloxy-1-[3-(3-methyl-pyridin-2-yl)-[1,2,4]oxadiazol-5-yl]-ethyl}-amide]	500 to 1000 nM
CCN(CC)CCCS(=O)(=O)N[C@H](CCc1ccccc1)c1nc(-c2ccccc2)no1 [Compound 6, 3-Diethylamino-propane-1-sulfonic acid [(R)-3-phenyl-1-(3-phenyl-[1,2,4]oxadiazol-5-yl)-propyl]-amide]	< 100 nM
CCN(CC)CCCS(=O)(=O)N[C@H](CCc1ccccc1)c1nc(-c2ccc(Cl)cc2Cl)n[nH]1 [Compound 58, 3-Diethylamino-propane-1-sulfonic acid {(R)-1-[5-(2,4-dichloro-phenyl)-2H-[1,2,4]triazol-3-yl]-3-phenyl-propyl}-amide]	< 100 nM
CCN(CC)CCCS(=O)(=O)N[C@H](CCc1ccccc1)c1nc(-c2cccc(Br)c2)n[nH]1 [Compound 53, 3-Diethylamino-propane-1-sulfonic acid {(R)-1-[5-(3-bromo-phenyl)-2H-[1,2,4]triazol-3-yl]-3-phenyl-propyl}-amide]	< 100 nM
CCN(CC)CCCS(=O)(=O)N[C@H](CCc1ccccc1)c1nc(-c2ccc([N+](=O)[O-])cc2)n[nH]1 [Compound 65, 3-Diethylamino-propane-1-sulfonic acid {(R)-1-[5-(4-nitro-phenyl)-2H-[1,2,4]triazol-3-yl]-3-phenyl-propyl}-amide]	< 100 nM
CCN(CC)CCCS(=O)(=O)N[C@H](CCc1ccccc1)c1nc(Cc2cccc(F)c2)no1 [Compound 62, 3-Diethylamino-propane-1-sulfonic acid {(R)-1-[3-(3-fluoro-benzyl)-[1,2,4]oxadiazol-5-yl]-3-phenyl-propyl}-amide]	< 100 nM
CCN(CC)CCCS(=O)(=O)N[C@H](COCc1ccccc1)c1nc(-c2ccccc2)no1 [Compound 1, 3-Diethylamino-propane-1-sulfonic acid [(R)-2-benzyloxy-1-(3-phenyl-[1,2,4]oxadiazol-5-yl)-ethyl]-amide]	500 to 1000 nM
3-Diethylamino-propane-1-sulfonic acid {(R)-1-[3-(5-bromo-pyridin-3-yl)-[1,2,4]oxadiazol-5-yl]-phenyl-propyl}-amide [Compound 103]	100 to 500 nM
CCN(CC)CCCS(=O)(=O)N[C@H](CCc1ccccc1)c1nc(Cc2ccc3c(c2)OCO3)n[nH]1 [Compound 30, 3-Diethylamino-propane-1-sulfonic acid [(R)-1-(5-benzo[1,3]dioxol-5-ylmethyl-2H-[1,2,4]triazol-3-yl)-3-phenyl-propyl]-amide]	< 100 nM

The remaining lines, values ahead:

Ki	Compound
< 100 nM	CCN(CC)CCCS(=O)(=O)N[C@H](CCc1ccccc1)c1nc(C2CCCCC2)n[nH]1 [Compound 139, 3-Diethylamino-propane-1-sulfonic acid [(R)-1-(5-cyclohexyl-2H-[1,2,4]triazol-3-yl)-3-phenyl-propyl]-amide]
< 100 nM	CCN(CC)CCCS(=O)(=O)N[C@H](CCc1ccccc1)c1nc(Cc2ccc(C(F)(F)F)cc2)no1 [Compound 117, 3-Diethylamino-propane-1-sulfonic acid {(R)-3-phenyl-1-[3-(4-trifluoromethyl-benzyl)-[1,2,4]oxadiazol-5-yl]-propyl}-amide]
< 100 nM	CCN(CC)CCCS(=O)(=O)N[C@H](CCc1ccccc1)c1nc(Cc2nc(C)cs2)n[nH]1 [Compound 133, 3-Diethylamino-propane-1-sulfonic acid {(R)-1-[5-(4-methyl-3H-1lambda*4*-thiazol-2-ylmethyl)-2H-[1,2,4]triazol-3-yl]-3-phenyl-propyl}-amide]
< 100 nM	CCN(CC)CCS(=O)(=O)N[C@H](CCc1ccccc1)c1nc(Cc2cccc(F)c2)no1 [Compound 82, 2-Diethylamino-ethanesulfonic acid {(R)-1-[3-(3-fluoro-benzyl)-[1,2,4]oxadiazol-5-yl]-3-phenyl-propyl}-amide]
100 to 500 nM	CCN(CC)CCCS(=O)(=O)NCc1nc(Cc2ccc(Br)cc2)no1 [Compound 151, 3-Diethylamino-propane-1-sulfonic acid [3-(4-bromo-benzyl)-[1,2,4]oxadiazol-5-ylmethyl]-amide]
< 100 nM	CCN(CC)CCCS(=O)(=O)N[C@H](CCc1ccccc1)c1nc(-c2cccc3[nH]ccc23)n[nH]1 [Compound 118, 3-Diethylamino-propane-1-sulfonic acid {(R)-1-[5-(1H-indol-4-yl)-2H-[1,2,4]triazol-3-yl]-3-phenyl-propyl}-amide]
< 100 nM	CCN(CC)CCCS(=O)(=O)N[C@H](CCc1ccccc1)c1nc(Cc2ccsc2)n[nH]1 [Compound 122, 3-Diethylamino-propane-1-sulfonic acid [(R)-3-phenyl-1-(5-thiophen-3-ylmethyl-2H-[1,2,4]triazol-3-yl)-propyl]-amide]
< 100 nM	CCN(CC)CCCS(=O)(=O)N[C@H](CCc1ccccc1)c1nc(-c2cn(C)cn2)n[nH]1 [Compound 131, 3-Diethylamino-propane-1-sulfonic acid {(R)-1-[5-(1-methyl-1H-imidazol-4-yl)-2H-[1,2,4]triazol-3-yl]-3-phenyl-propyl}-amide]
100 to 500 nM	CCN(CC)CCCS(=O)(=O)N1CCC[C@@H]1c1nc(Cc2ccc(Br)cc2)no1 [Compound 145, (R)-(3-{2-[3-(4-Bromo-benzyl)-[1,2,4]oxadiazol-5-yl]-pyrrolidine-1-sulfonyl}-propyl)-diethyl-amine]
< 100 nM	CCN(CC)CCCS(=O)(=O)N[C@H](CCc1ccccc1)c1nc(-c2cccc(O)c2)n[nH]1 [Compound 121, 3-Diethylamino-propane-1-sulfonic acid {(R)-1-[5-(3-hydroxy-phenyl)-2H-[1,2,4]triazol-3-yl]-3-phenyl-propyl}-amide]
100 to 500 nM	CCN(CC)CCS(=O)(=O)N[C@H](CCc1ccccc1)c1nc(-c2ccc(C)cc2)no1 [Compound 86, 2-Diethylamino-ethanesulfonic acid [(R)-3-phenyl-1-(3-p-tolyl-[1,2,4]oxadiazol-5-yl)-propyl]-amide]
100 to 500 nM	CCN(CC)CCS(=O)(=O)N[C@H](CCc1ccccc1)c1nc(Cc2ccc3c(c2)OCO3)no1 [Compound 81, 2-Diethylamino-ethanesulfonic acid [(R)-1-(3-benzo[1,3]dioxol-5-ylmethyl-[1,2,4]oxadiazol-5-yl)-3-phenyl-propyl]-amide]
< 100 nM	CCN(CC)CCCS(=O)(=O)N[C@H](CCc1ccccc1)c1nc(Cc2c[nH]c3ccccc23)n[nH]1 [Compound 127, 3-Diethylamino-propane-1-sulfonic acid {(R)-1-[5-(1H-indol-3-ylmethyl)-2H-[1,2,4]triazol-3-yl]-3phenyl-propyl}-amide]
< 100 nM	CCN(CC)CCCS(=O)(=O)N[C@H](CCc1ccccc1)c1nc(-c2ccc(F)c(C#N)c2)n[nH]1 [Compound 128, 3-Diethylamino-propane-1-sulfonic acid {(R)-1-[5-(3-cyano-4-fluoro-phenyl)-2H-[1,2,4]triazol-3-yl]-3-phenyl-propyl}-amide]
100 to 500 nM	CCN(CC)CCS(=O)(=O)N[C@H](CCc1ccccc1)c1nc(Cc2ccccc2C)no1 [Compound 87, 2-Diethylamino-ethanesulfonic acid {(R)-1-[3-(2-methyl-benzyl)-[1,2,4]oxadiazol-5-yl]-3-phenyl-propyl}-amide]
≥ 1000 nM	CCN(CC)CCS(=O)(=O)N[C@H](CCc1ccccc1)c1nc(-c2cnccc2C)no1 [Compound 77, 2-Diethylamino-ethanesulfonic acid {(R)-1-[3-(4-methyl-pyridin-3-yl)-[1,2,4]oxadiazol-5-yl]-3-phenyl-propyl}-amide]
100 to 500 nM	CCN(CC)CCCS(=O)(=O)N[C@H](C)c1nc(Cc2ccc(Br)cc2)no1 [Compound 147, (R)-3-Diethylamino-propane-1-sulfonic acid {1-[3-(4-bromo-benzyl)-[1,2,4]oxadiazol-5-yl]-ethyl}-amide]
